Entries after “also recorded” stand apart in the source; their conditions may differ. Where no end group is shown, it is not given here.
How the values were obtained:
INS-1 832/13 cells [1] = test: Whole-cell capacitance measurement (exocytosis), patch-clamp; format: cell-based, rat
Description: Whole-cell capacitance measurement was performed in INS-1 832/13 cells using HEKA EPC10 patch-clamp amplifiers with the software Suite Pulse + X-Chart Extension (version 8.6 or later; HEKA, Lambrecht-Pfalz, Germany) as previously described.[40] Briefly, INS-1 832/13 cells were seeded in Nunc plastic petri dishes one day prior to the measurement. The intracellular pipette solution contained 125 mM Cs-glutamate, 10 mM CsCl, 10 mM NaCl, 1 mM MgCl2, 5 mM HEPES, 3 mM Mg-ATP, 0.1 mM cAMP and 0.05 mM EGTA (pH 7.2 with CsOH). The perfusing extracellular solution was composed of 118 mM NaCl, 20 mM tetraethylammonium chloride, 5.6 mM KCl, 2.6 mM CaCl2, 1.2 mM MgCl2, 5 mM HEPES and 5 mM glucose (pH 7.4), and the temperature was maintained at 32°C.

AtT20 cells = conditions: cited from earlier work
Source text: However, much earlier, a fragment of the CART peptide was identified in extracts of sheep hypothalamus.[2] CART was later found to be expressed also in pancreatic islet cells and in nerve fibers innervating the islets.[3]^,[4]^,[5] […] Since then, multiple biological effects of CART have been established.[4]^,[7] Among them is the effect of CART on islet hormone secretion fr ...

INS-1 832/13 cells [2] = test: Glucose-stimulated insulin secretion (GSIS) in INS-1 832/13; format: cell-based, rat; conditions: 10^-7M CARTp55-102 24 h before GSIS, 16.7 mM glucose, 10 μM IBMX
Description: GSIS was measured 72 h after Cartpt KD. INS-1 832/13 cells were washed twice and incubated for 2 h in 2.8 mM glucose HEPES-buffered saline solution (HBSS): 114 mM NaCl, 4.7 mM KCl, 1.2 mM KH2PO4, 1.16 mM MgSO4, 20 mM HEPES, 2.5 mM CaCl2, 25.5 mM NaHCO3, 0.2% BSA, pH 7.2, followed by 1-h stimulation in the same buffer containing 2.8 mM, 16.7 mM glucose, 16.7 mM glucose and 10 μM IBMX. In a separate experiment, control and Gpr162 KD cells were incubated with 10^−7M CARTp55-102 for 24 h before GSIS. Insulin concentrations in supernatant were determined using ELISA (Mercodia, Uppsala, Sweden) and were normalized to total protein content of each well (determined by Bio-Rad protein assay, BioRad).
Insulin from INS-1 832/13 cells and mouse islets were analyzed using ELISA (Mercodia).

rodent and human islets = conditions: in vivo and in vitro/ex vivo; cited from earlier work
Source text: However, much earlier, a fragment of the CART peptide was identified in extracts of sheep hypothalamus.[2] CART was later found to be expressed also in pancreatic islet cells and in nerve fibers innervating the islets.[3]^,[4]^,[5] […] Since then, multiple biological effects of CART have been established.[4]^,[7] […] However, the identity of the CART receptor mediating this effect in beta cells is unknown to date.[15] Here, we provide evidence for GPR162 as a CART receptor in beta cells.

GPR162 = test: Proximity ligation assay (PLA) CART-GPR162 in INS-1 832/13 cells; format: binding, rat
Description: INS-1 832/13 cells were seeded in 8-well tissue culture chambers (Sarstedt, Nümbrecht, Germany). 10^−7M rat CARTp55-102 (Phoenix Pharmaceuticals, Burlingame, CA) was added to fresh media and cells were incubated for 5 min in a humidified atmosphere (37°C, 5% CO2). Cells were rinsed quickly in ice-cold 1XPBS and then washed twice with ice-cold PBS. Cells were then fixed for 20 min in 4% paraformaldehyde, washed 2 × 10 min in 1XPBS and permeabilized for 15 min in PBS +0.25% Triton X-100. Proximity ligation assay (PLA) (DuoLink In situ Red Starter Kit Goat/Rabbit, Sigma Aldrich) was performed according to the instructions provided by the manufacturers. The following antibody combinations were used for the PLA: goat anti-GPR162 (sc-138323, dilution 1:500, Santa Cruz) with rabbit anti-CART (code 2059A, dilution 1:5000, kindly provided by Dr. Jes T. Clausen, Novo Nordisk, Måløv, Denmark), and goat anti-CART (code sc-18068, dilution 1:400, Santa Cruz) with rabbit anti-GPR162 (code PA5-33655, dilution 1:500, Thermo Scientific). Anti-rabbit GPR160 (code PA5-33650) was combined with anti-goat CART (code sc-18068 from Santa Cruz). Anti-rabbit GNA13 (PA5-100644) was combined with anti-goat GPR162 (sc-138323). Negative controls were omission of both antibodies and the combination of the CART antibody with an antibody toward a receptor with a known ligand. […]

beta cells in islets = conditions: between beta cells within same islet; cited from earlier work
Source text: Our observation that CART affects cytoskeletal rearrangement is novel. Without doubt, the actin network is of great importance for properly functioning insulin secretion.[34]^,[35]^,[36]^,[37] In the present study, a large number of genes involved in cytoskeletal rearrangement were affected by both Cartpt KD and Gpr162 KD. […] Furthermore, Cartpt KD also affects genes crucial for regulation of exocytosis,[14] a process indeed dependent on ...

CARTp55-102: Rat, mouse CARTp55-102 (Phoenix Pharmaceuticals, Cat#003-62); human form Cat#003-60; cocaine- and amphetamine-regulated transcript peptide (IPIYEKKYGQVPMCDAGEQCAVRKGARIGKLCDCPRGTSCNSFLLKCL; ends and bridges not checked; cysteine pairing not given here)
CART-induced increase in capacitance / exocytosis after Gpr162 KD (INS-1 832/13 cells [1]; Gpr162 KD cells, 10^-7M CARTp55-102 1 h, n = 13-14 cells): abolished; also recorded: near-complete abolishment
Increase in capacitance (INS-1 832/13 cells [1]; control cells, 10^-7M CARTp55-102 for 1 h, 5 mM glucose, 32°C, n = 17 cells): approximately 1.3 -fold
Displacement of radiolabeled CART (AtT20 cells): radiolabeled CART to be displaced by CARTp55-102
Insulinotropic effect of CARTp55-102 on glucose and IBMX-stimulated secretion in Gpr162 KD cells (INS-1 832/13 cells [2]; n = 6): abolished
Insulinotropic effect of CARTp55-102 on glucose and IBMX-stimulated secretion in Gpr162 KD cells (INS-1 832/13 cells [2]; n = 6, listed as CART): near-complete abolishment
Glucagon secretion (rodent and human islets): reduces glucagon secretion
Insulin secretion (rodent and human islets): increases insulin secretion
CART-GPR162 interaction (PLA) (GPR162; 10^-7M rat CARTp55-102, 5 min, 37°C, n = 8): confirmed an interaction between GPR162 and CART
Reduction of CART-GPR162 interaction (PLA) in Gpr162 siRNA cells (GPR162; Gpr162 siRNA vs control cells, 10^-7M CARTp55-102, n = 8, p < 0.005): 90%
Synchronization of Ca2+ oscillations (beta cells in islets): increased synchronization of Ca^2+ oscillations
